This note sets out measurements from US20190388421A1, “NOVEL COMPOUNDS AND PHARMACEUTICAL COMPOSITIONS THEREOF FOR THE TREATMENT OF FIBROSIS” (Galapagos NV, priority 2016, published 2019).

The target in assay [1] is T1, human GPCR sphingosine 1-phosphate receptor 1 (S1PR1) (Homo sapiens, UniProt P21453).
T1 construct: host or cells: CHO
In words: S1PR1 selectivity assay (Ca2+ flux, antagonist). The settings on record: S1P1 antagonist EC50, CHO cells overexpressing human S1PR1 and Gq protein. It is filed as cell-based. Here is the method:
(§1) After readout of the agonist activity, the plates are incubated for 15 min at 37° C. and 5% CO2. Then, cells are stimulated with 10 μL Sphingosine-1-Phosphate (S1P) (Avanti Polar lipids-860492P) at its EC80 concentration. Intracellular Ca^2+ changes are immediately measured by reading fluorescence during 3 min (FDSS/μCELL reader). The ratio of the maximal fluorescence over the background fluorescence before compound injection is used to determine compound response.
(§2) For EC50 determination, a 10 point dilution series of compounds starting from 23.3 μM and 20 μM highest final concentration for agonist and antagonist respectively, ⅓ dilution was performed.
(§3) The obtained ratio's for agonist and antagonist readout were normalized versus vehicle and EC100 of S1P as controls for agonist mode and versus vehicle and EC80 of S1P for antagonist mode. From these normalized data EC50 of the compounds are derived.
(§4) To evaluate the selectivity of the compounds for S1PR2 over S1PR1 and S1PR5, a similar assay set up as described above for the S1PR2 calcium flux assays was performed: CHO cells stably overexpressing human GPCR sphingosine 1-phosphate receptor 1 and Gq protein (Euroscreen, FAST-0197A) or overexpressing human GPCR sphingosine 1-phosphate receptor 5 and Gq protein were used (Perkin Elmer, ES-593-A). In case of the S1PR5 assay triggering was done with an S1PR5 specific agonist instead of with S1P (Hobson et al., 2015).

For assay [2], the target named is T2, human GPCR sphingosine 1-phosphate receptor 5 (S1PR5) (Homo sapiens, UniProt Q9H228).
T2 construct: host or cells: CHO
T2 sequence (Q9H228 whole entry): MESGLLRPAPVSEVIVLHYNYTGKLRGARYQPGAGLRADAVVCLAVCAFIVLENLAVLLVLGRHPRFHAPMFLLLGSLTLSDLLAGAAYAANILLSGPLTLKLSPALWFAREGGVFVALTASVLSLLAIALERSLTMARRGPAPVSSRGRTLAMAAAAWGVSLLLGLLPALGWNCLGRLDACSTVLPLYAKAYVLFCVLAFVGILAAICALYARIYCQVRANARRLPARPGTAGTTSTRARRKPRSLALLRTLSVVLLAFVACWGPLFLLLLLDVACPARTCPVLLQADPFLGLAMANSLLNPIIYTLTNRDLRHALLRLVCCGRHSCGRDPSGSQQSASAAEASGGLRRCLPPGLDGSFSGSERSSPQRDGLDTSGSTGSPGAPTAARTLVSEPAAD
Kind of assay: S1PR5 selectivity assay (Ca2+ flux, antagonist, S1PR5 specific agonist trigger). In kind it is cell-based. The settings on record: S1P5 antagonist EC50, CHO cells overexpressing human S1PR5 and Gq protein. As for the experimental part:
as §1, §2, §3, §4

Another assay deals with T3, S1PR2 (Homo sapiens, UniProt O95136).
T3 construct: expressed in transfected cells
T3 sequence (O95136 whole entry): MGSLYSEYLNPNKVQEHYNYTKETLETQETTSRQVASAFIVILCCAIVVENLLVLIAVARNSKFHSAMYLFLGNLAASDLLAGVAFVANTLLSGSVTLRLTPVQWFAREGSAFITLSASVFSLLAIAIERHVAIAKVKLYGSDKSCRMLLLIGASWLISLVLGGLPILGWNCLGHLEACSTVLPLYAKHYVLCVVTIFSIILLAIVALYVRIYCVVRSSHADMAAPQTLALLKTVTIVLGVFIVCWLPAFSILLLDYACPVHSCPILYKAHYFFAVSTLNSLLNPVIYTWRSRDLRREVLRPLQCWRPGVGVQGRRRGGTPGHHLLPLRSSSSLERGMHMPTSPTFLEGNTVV
Kind of assay: GTP-γS binding assay ([35S]GTPγS, S1P at EC80, S1PR2 membranes). In kind it is biochemical. The settings on record: membranes from stable cell line over expressing S1PR2, read-out: S1PR2 EC. Here is the method:
The following assay can be used for determination of S1PR2 activation. The [^35S] GTPγS assay measures the level of G protein activation following agonist occupation of a GPCR, by determining the binding of the non-hydrolysable analog [^35S] GTPγS to Gα subunits.
The assay is performed in a 96 well plate where the following reagents are added. First 50 μL compound is added into the assay plate, followed by addition of 20 μL S1P at EC80 concentration (concentration which gives 80% of the activity of S1PR2). Then, 30 μL of a mixture consisting of membranes-GTPγS-SpA beads is added [mixture consists of 2.5 μg/well membranes derived from stable cell line over expressing S1PR2 (membranes are pre-incubated with 1 μM GDP for 15 min at 4° C.), 0.1 nM [35S]GTPγS (Perkin Elmer, NEG030) and 0.5 mg/well PVT-WGA SpA beads (Perkin Elmer, RPNQ0001)]. All components are diluted in assay buffer containing 20 mM Tris pH 7.5; 10 mM MgCl2; 100 mM NaCl; 0.1% BSA FAF; 50 ug/ml saponin. After an incubation for 4 h at room temperature, plates are centrifuged at 2000 rpm during 20 min. Plates are read on a Topcount reader (Perkin Elmer) immediately after centrifugation (readout time, 1 min/well).

In assay [3] the target is T4, human GPCR sphingosine 1-phosphate receptor 2 (S1PR2) (Homo sapiens, UniProt O95136).
T4 construct: host or cells: CHO
T4 sequence (O95136 whole entry): as above
Kind of assay: S1P2 antagonist assay (Ca2+ flux, S1P at EC80). Particulars: CHO-S1PR2 cells, highest concentration 20 μM. In kind it is cell-based. As for the experimental part: Triggering of S1PR2 by administration of Sphingosine-1-phosphate leads to a transient increase in intracellular Ca^2+. The Ca^2+ flux assays are measuring the release of Ca^2+ intracellularly by use of a Ca^2+ sensitive fluorescent dye. The assay is firstly run in agonist mode (incubation of compounds alone) to ensure that the Ca^2+ released measured is not caused by the test compound having an agonistic effect. Then the assay is continued in antagonist mode (Sphingosine-1-Phosphate added to incubated medium containing the test compounds).
CHO cells stably overexpressing human GPCR sphingosine 1-phosphate receptor 2 (CHO—S1PR2 Perkin Elmer; ES-594-A) are seeded from a frozen stock in 384 wells sterile microplates (50 μL; 7,500 cells/well) and are incubated overnight at 37° C. and 5% CO2. The next day cells are washed twice with starvation medium (F-12 Ham's medium containing 0.1% BSA (Fatty acid free: FAF)) and left in […] starvation medium for 1 h at 37° C., 5% CO2. After this starvation cells are incubated with […] buffer containing the Ca^2+-sensitive fluorescent dye (0.5 mg Fluo8+125 mg Allura Red in 100 ml of 1% DMSO, in HBSS+20 mM Hepes+5 mM probenecid). The cells are incubated for an additional 1 hour after which 10 μL compounds, diluted in HBSS buffer with 20 mM Hepes and 0.1% BSA (FAF), are added to the cells and intracellular Ca^2+ changes are immediately measured by reading fluorescence during 3 min (FDSS/μCELL reader). The ratio of the maximal fluorescence over the background fluorescence before compound injection is used to determine compound response.
as §1, §2, §3

Molecules are shown by their SMILES.

T1 sequence (P21453 whole entry): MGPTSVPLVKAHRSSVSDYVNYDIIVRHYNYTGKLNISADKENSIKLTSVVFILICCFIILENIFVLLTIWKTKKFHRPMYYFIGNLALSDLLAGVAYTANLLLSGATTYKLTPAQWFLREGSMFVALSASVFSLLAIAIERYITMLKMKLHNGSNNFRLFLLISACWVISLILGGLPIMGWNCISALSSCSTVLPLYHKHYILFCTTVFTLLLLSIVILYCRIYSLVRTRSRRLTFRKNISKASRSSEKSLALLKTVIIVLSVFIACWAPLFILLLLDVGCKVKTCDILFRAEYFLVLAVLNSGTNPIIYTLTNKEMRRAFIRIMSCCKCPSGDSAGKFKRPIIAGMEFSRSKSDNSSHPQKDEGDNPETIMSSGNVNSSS

As to `CCOc1cc(NC(=O)NCc2cc(C)c(N3CC(C)O[C@H](C)C3)nn2)cc(C(F)(F)F)n1` (stereo in doubt) [Compound 100, 1-[[6-[(2R,6S)-2,6-dimethyl-morpholin-4-yl]-5-methyl-pyridazin-3-yl]methyl]-3-(2-ethoxy-6-(trifluoromethyl)-4-pyridyl]urea], the EC50 in assay [1] is 6610 nM; in assay [2], 2480 nM. As for `Cc1cc(CNC(=O)Nc2cc(Cl)cc(Cl)c2)nnc1-c1cn(C)nc1C(F)(F)F` [Compound 6, 1-(3,5-dichlorophenyl)-3-[[5-methyl-6-[1-methyl-3-(trifluoromethyl)pyrazol-4-yl]pyridazin-3-yl]methyl]urea], the figures for the EC50 (at S1PR2; in assay [3]) were 50.2 nM and 16.9 nM, respectively. For `Cc1cc(CNC(=O)Nc2cnc(OCC3CC3)c(C(F)(F)F)c2)nnc1-c1cn(C)nc1C(F)(F)F` [Compound 11, 1-[6-cyclopropyl-methoxy-5-(trifluoromethyl)-3-pyridyl]-3-[[5-methyl-6-[1-methyl-3-(trifluoromethyl)pyrazol-4-yl]pyridazin-3-yl]methyl]urea], the EC50 at S1PR2 was 716 nM; in assay [3], 49.6 nM. With `Cc1cc(CNC(=O)Nc2cnc(OCC(F)(F)F)c(C(F)(F)F)c2)nnc1-c1cn(C)nc1C(F)(F)F` [Compound 12, 1-[[5-methyl-6-[1-methyl-3-(trifluoromethyl)pyrazol-4-yl]pyridazin-3-yl]methyl]-3-[6-(2,2,2-trifluoroethoxy)-5-(trifluoromethyl)-3-pyridyl]urea], the values for the EC50 (at S1PR2; in assay [3]) were 590 nM and 11.7 nM, respectively.

`Cc1cc(CNC(=O)Nc2cnc(OCC3CC3)c(Cl)c2)nnc1-c1cn(C)nc1C(F)(F)F` [Compound 13, 1-[5-chloro-6-(cyclopropyl-methoxy)-3-pyridyl]-3-[[5-methyl-6-[1-methyl-3-(trifluoromethyl)pyrazol-4-yl]pyridazin-3-yl]methyl]urea]: the EC50 is 1120 nM at S1PR2 and 40.3 nM in assay [3]. Consider `Cc1cc(CNC(=O)Nc2cc(Cl)nc(OCC(F)(F)F)c2)nnc1-c1cn(C)nc1C(F)(F)F` [Compound 14, 1-[2-chloro-6-(2,2,2-trifluoroethoxy)-4-pyridyl]-3-[[5-methyl-6-[1-methyl-3-(trifluoromethyl)pyrazol-4-yl]pyridazin-3-yl]methyl]urea], for which the results for the EC50 (on S1PR2; in assay [3]) were 225 nM and 24.2 nM, respectively.

Take `Cc1cc(CNC(=O)Nc2cc(OCC(F)F)nc(C(F)(F)F)c2)nnc1-c1cn(C)nc1C(F)(F)F` [Compound 19, 1-[2-(2,2-difluoroethoxy)-6-(trifluoromethyl)-4-pyridyl]-3-[[5-methyl-6-[1-methyl-3-(trifluoromethyl)pyrazol-4-yl]pyridazin-3-yl]methyl]urea]: the EC50 on S1PR2 was found to be 88.7 nM; in assay [3] it was 17.1 nM. Turning to `Cc1cc(CNC(=O)Nc2cc(OCC(F)F)nc(C3CC3)c2)nnc1-c1cn(C)nc1C(F)(F)F` [Compound 29, 1-[2-cyclopropyl-6-(2,2-difluoroethoxy)-4-pyridyl]-3-[[5-methyl-6-[1-methyl-3-(trifluoromethyl)pyrazol-4-yl]pyridazin-3-yl]methyl]urea], the EC50 came to 275 nM on S1PR2 and 27.3 nM in assay [3]. Consider `CCOc1cc(NC(=O)NCc2cc(C)c(-c3cn(C)nc3C(F)(F)F)nn2)nc(OCC)n1` [Compound 31, 1-(2,6-diethoxy-pyrimidin-4-yl)-3-[[5-methyl-6-[1-methyl-3-(trifluoromethyl)pyrazol-4-yl]pyridazin-3-yl]methyl]urea], for which the EC50 worked out at 1650 nM at S1PR2 and 3140 nM in assay [3]. Consider `Cc1cc(CNC(=O)Nc2cc(Cl)c(F)c(Cl)c2)nnc1-c1cn(C)nc1C(F)(F)F` [Compound 32, 1-(3,5-dichloro-4-fluoro-phenyl)-3-[[5-methyl-6-[1-methyl-3-(trifluoromethyl)pyrazol-4-yl]pyridazin-3-yl]methyl]urea], for which the EC50 at S1PR2 worked out at 164 nM; in assay [3], 11.1 nM. Regarding `Cc1cc(CNC(=O)Nc2cc(OCC3CC3(F)F)nc(C(F)(F)F)c2)nnc1-c1cn(C)nc1C(F)(F)F` (stereo not shown) [Compound 33, 1-[2-[(2,2-difluoro-cyclopropyl)methoxy]-6-(trifluoromethyl)-4-pyridyl]-3-[[5-methyl-6-[1-methyl-3-(trifluoromethyl)pyrazol-4-yl]pyridazin-3-yl]methyl]urea], the EC50 on S1PR2 came to 164 nM; in assay [3] it was 37.1 nM. As for `Cc1cc(CNC(=O)Nc2cc(OCC3CCOC3)nc(C(F)(F)F)c2)nnc1-c1cn(C)nc1C(F)(F)F` (stereo not shown) [Compound 36], the EC50 was 1800 nM at S1PR2 and 791 nM in assay [3].

`CCOc1nc(C(F)(F)F)cc(NC(=O)NCc2cc(C)c(-c3cn(C)nc3C(F)(F)F)nn2)c1Br` [Compound 49, 1-[3-bromo-2-ethoxy-6-(trifluoromethyl)-4-pyridyl]-3-[[5-methyl-6-[1-methyl-3-(trifluoromethyl)pyrazol-4-yl]pyridazin-3-yl]methyl]urea]: the EC50 in assay [3] was determined as 11.5 nM. The same measure, in the same setting: then `Cc1cc(CNC(=O)Nc2cnc(OCC(F)F)c(Cl)c2)nnc1N1CC(C)OC(C)C1` (stereo not shown) [Compound 84, 1-[5-chloro-6-(2,2-difluoroethoxy)-3-pyridyl]-3-[[6-(2,6-dimethyl-morpholin-4-yl)-5-methyl-pyridazin-3-yl]methyl]urea], with 6510 nM; and `CCOc1ncc(NC(=O)NCc2cc(C)c(N3CC(C)OC(C)C3)nn2)cc1Cl` (stereo not shown) [Compound 86, 1-(5-chloro-6-ethoxy-3-pyridyl)-3-[[6-(2,6-dimethyl-morpholin-4-yl)-5-methyl-pyridazin-3-yl]methyl]urea], with 1360 nM; and `Cc1cc(CNC(=O)Nc2cnc(OCC3CC3)c(Cl)c2)nnc1N1CC(C)OC(C)C1` (stereo not shown) [Compound 88, 1-[5-chloro-6-(cyclopropyl-methoxy)-3-pyridyl]-3-[[6-(2,6-dimethyl-morpholin-4-yl)-5-methyl-pyridazin-3-yl]methyl]urea], with 4510 nM. Turning to `CCOc1nc(C)cc(NC(=O)NCc2cc(C)c(N3C[C@@H](C)O[C@@H](C)C3)nn2)c1C` [Compound 95, 1-[[6-[(2R,6S)-2,6-dimethyl-morpholin-4-yl]-5-methyl-pyridazin-3-yl]methyl]-3-(2-ethoxy-3,6-dimethyl-4-pyridyl)urea], the EC50 is 6610 nM in assay [1] and 809 nM in assay [2].

As for `CCOc1cc(N[14C](=O)NCc2cc(C)c(-c3cn(C)nc3C(F)(F)F)nn2)cc(C(F)(F)F)n1` [Compound 98, 1-(2-Ethoxy-6-trifluoromethyl-pyridin-4-yl)-3-[5-methyl-6-(1-methyl-3-trifluoromethyl-1H-pyrazol-4-yl)-pyridazin-3-ylmethyl]-C14 urea], on S1PR2, the EC50 was determined as 16300 nM.
